PubChem BioAssay AID328 (DTP/NCI, 2004)
Where “and” joins values, the source holds several entries; their conditions need not be identical. Equal entries are not always repeated. Toxic doses and inconclusive results are not listed.

Test system: BDF1 mice, P388 leukemia ip, median survival T/C
Test: NCI In Vivo Anticancer Drug Screen. Data for tumor model P388 Leukemia (intraperitoneal) in B6D2F1 (BDF1) mice
Settings: endpoint: median survival time, higher = longer survival
Summary of the method: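 Reported as T/C, where T is the survival measurement in dosed animals and C the same measurement in vehicle controls.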

[1] = dose: 50.0 mg/kg/injection, schedule: Q04DX003 (ip), vehicle: water
[2] = dose: 100.0 mg/kg/injection, schedule: Q01DX009 (ip), vehicle: water
[3] = dose: 200.0 mg/kg/injection, schedule: Q01DX009 (ip), vehicle: water
[4] = dose: 200.0 mg/kg/injection, schedule: Q04DX003 (ip), vehicle: water
[5] = dose: 400.0 mg/kg/injection, schedule: Q01DX009 (ip), vehicle: water
[6] = dose: 2.0 mg/kg/injection, schedule: Q01DX009 (ip), vehicle: saline
[7] = dose: 4.0 mg/kg/injection, schedule: Q01DX009 (ip), vehicle: saline
[8] = dose: 8.0 mg/kg/injection, schedule: Q01DX009 (ip), vehicle: saline
[9] = dose: 25.0 mg/kg/injection, schedule: Q04DX003 (ip), vehicle: saline
[10] = dose: 50.0 mg/kg/injection, schedule: Q04DX003 (ip), vehicle: saline
[11] = dose: 50.0 mg/kg/injection, schedule: Q01DX009 (ip), vehicle: Klucel (hydroxypropylcellulose) (HPC)
[12] = dose: 200.0 mg/kg/injection, schedule: Q04DX003 (ip), vehicle: Klucel (hydroxypropylcellulose) (HPC)
[13] = dose: 400.0 mg/kg/injection, schedule: Q04DX003 (ip), vehicle: Klucel (hydroxypropylcellulose) (HPC)
[14] = dose: 100.0 mg/kg/injection, schedule: Q01DX009 (ip), vehicle: other
[15] = dose: 100.0 mg/kg/injection, schedule: Q04DX003 (ip), vehicle: other
[16] = dose: 200.0 mg/kg/injection, schedule: Q04DX003 (ip), vehicle: other
[17] = dose: 100.0 mg/kg/injection, schedule: Q04DX003 (ip), vehicle: saline with Tween-80
[18] = dose: 200.0 mg/kg/injection, schedule: Q04DX003 (ip), vehicle: saline with Tween-80
[19] = dose: 400.0 mg/kg/injection, schedule: Q04DX003 (ip), vehicle: saline with Tween-80
[20] = dose: 50.0 mg/kg/injection, schedule: Q01DX009 (ip), vehicle: saline with Tween-80
[21] = dose: 100.0 mg/kg/injection, schedule: Q01DX009 (ip), vehicle: saline with Tween-80
[22] = dose: 200.0 mg/kg/injection, schedule: Q01DX009 (ip), vehicle: saline with Tween-80
[23] = dose: 25.0 mg/kg/injection, schedule: Q01DX009 (ip), vehicle: saline with Tween-80

In the case of O=C1NCN(c2ccccc2)C12CCNCC2, the T/C (dose: 25.0 mg/kg/injection, schedule: Q01DX009 (ip), vehicle: saline) is reported as 90 % of control, the T/C (dose: 50.0 mg/kg/injection, schedule: Q01DX009 (ip), vehicle: saline) is reported as 113 % of control and the T/C (dose: 100.0 mg/kg/injection, schedule: Q01DX009 (ip), vehicle: saline) is reported as 100 % of control.
With N/C(=N\O)c1cccnc1 the T/C (dose: 12.5 mg/kg/injection, schedule: Q01DX009 (ip), vehicle: water) was 109 % of control, the T/C (dose: 25.0 mg/kg/injection, schedule: Q01DX009 (ip), vehicle: water) was 102 % of control and the T/C (dose: 50.0 mg/kg/injection, schedule: Q01DX009 (ip), vehicle: water) was 102 % of control. For the same compound, the T/C [1] was 101 % of control and 102 % of control, the T/C [2] was 102 % of control and the T/C (dose: 100.0 mg/kg/injection, schedule: Q04DX003 (ip), vehicle: water) was 87 % of control and 105 % of control. For the same compound, the T/C [3] was 107 % of control, the T/C [4] was 100 % of control and 107 % of control and the T/C (dose: 300.0 mg/kg/injection, schedule: Q04DX003 (ip), vehicle: water) was 108 % of control. The T/C [5] was 107 % of control.
With N[C@H](C(=O)O)[C@@H]1CC(Cl)=NO1 the T/C (dose: 0.39 mg/kg/injection, schedule: Q01DX009 (ip), vehicle: saline) was 150 % of control, the T/C (dose: 0.78 mg/kg/injection, schedule: Q01DX009 (ip), vehicle: saline) was 175 % of control and the T/C (dose: 1.0 mg/kg/injection, schedule: Q01DX009 (ip), vehicle: saline) was 183 % of control. For the same compound, the T/C (dose: 1.56 mg/kg/injection, schedule: Q01DX009 (ip), vehicle: saline) was 175 % of control, the T/C [6] was 193 % of control and the T/C (dose: 3.12 mg/kg/injection, schedule: Q01DX009 (ip), vehicle: saline) was 95 % of control. For the same compound, the T/C (dose: 3.12 mg/kg/injection, schedule: Q04DX003 (ip), vehicle: saline) was 113 % of control, the T/C [7] was 220 % of control and the T/C (dose: 6.25 mg/kg/injection, schedule: Q01DX009 (ip), vehicle: saline) was 90 % of control. The T/C [8] was 250 % of control, the T/C (dose: 12.5 mg/kg/injection, schedule: Q04DX003 (ip), vehicle: saline) was 174 % of control and the T/C (dose: 16.0 mg/kg/injection, schedule: Q01DX009 (ip), vehicle: saline) was 118 % of control. For the same compound, the T/C (dose: 21.6 mg/kg/injection, schedule: Q04DX003 (ip), vehicle: saline) was 169 % of control, the T/C [9] was 220 % of control and the T/C (dose: 32.0 mg/kg/injection, schedule: Q01DX009 (ip), vehicle: saline) was 91 % of control. The T/C [10] was 231 % of control, the T/C [1] was 117 % of control and the T/C (dose: 100.0 mg/kg/injection, schedule: Q04DX003 (ip), vehicle: saline) was 101 % of control. For the same compound, the T/C [4] was 209 % of control and the T/C (dose: 400.0 mg/kg/injection, schedule: Q04DX003 (ip), vehicle: water) was 196 % of control.
For O=C(Nc1cccc(Cl)c1)c1cc(N=Nc2ccc([N+](=O)[O-])cc2Cl)ccc1O, the T/C (dose: 25.0 mg/kg/injection, schedule: Q01DX009 (ip), vehicle: Klucel (hydroxypropylcellulose) (HPC)) was 114 % of control, the T/C [11] was 114 % of control and the T/C (dose: 133.0 mg/kg/injection, schedule: Q04DX003 (ip), vehicle: Klucel (hydroxypropylcellulose) (HPC)) was 115 % of control. The T/C [12] was 161 % of control and the T/C [13] was 155 % of control.
With CCCCCCCCCCCCCCCCOCCCCCCCCCCCCCCCC the T/C [14] was 86 % of control, the T/C [15] was 91 % of control and the T/C (dose: 200.0 mg/kg/injection, schedule: Q01DX009 (ip), vehicle: other) was 86 % of control. The T/C [16] was 91 % of control.
Cc1ccc(S(=O)(=O)N2CCC(C(=O)O)(c3ccccc3)CC2)cc1 was tested, and the T/C [17] was 100 % of control, the T/C [18] was 95 % of control and the T/C [19] was 95 % of control.
In the case of N=P(N[P+](N)(c1ccccc1)c1ccccc1)(c1ccccc1)c1ccccc1, the T/C (dose: 6.25 mg/kg/injection, schedule: Q01DX001 (ip), vehicle: saline) is reported as 117 % of control, the T/C (dose: 8.2 mg/kg/injection, schedule: Q01DX001 (ip), vehicle: saline) is reported as 100 % of control and the T/C (dose: 12.5 mg/kg/injection, schedule: Q01DX001 (ip), vehicle: saline) is reported as 100 % of control. For the same compound, the T/C (dose: 18.0 mg/kg/injection, schedule: Q01DX001 (ip), vehicle: saline) was 104 % of control and the T/C (dose: 25.0 mg/kg/injection, schedule: Q01DX001 (ip), vehicle: saline) was 116 % of control.
[NH-]C(Cc1ccc(O)cc1)C(=O)O.[NH-]C(Cc1ccc(O)cc1)C(=O)O.[Ni+2] (centres undefined) was tested, and the T/C [6] was 111 % of control, the T/C [7] was 107 % of control and the T/C [8] was 121 % of control. For the same compound, the T/C [9] was 112 % of control and the T/C [10] was 114 % of control.
O=C(Cn1ccc(O)cc1=O)N1CCOCC1 was tested, and the T/C [2] was 105 % of control, the T/C [3] was 104 % of control and the T/C [5] was 104 % of control.
Cc1nc(N)ncc1CCC1OCCO1 was tested, and the T/C (dose: 100.0 mg/kg/injection, schedule: Q01DX001 (ip), vehicle: saline) was 100 % of control, the T/C (dose: 200.0 mg/kg/injection, schedule: Q01DX001 (ip), vehicle: saline) was 109 % of control and the T/C (dose: 400.0 mg/kg/injection, schedule: Q01DX001 (ip), vehicle: saline) was 111 % of control.
CCC(=O)O[C@H]1CC(=O)N(C)c2cc(cc(OC)c2Cl)C/C(C)=C/C=C[C@@H](OC)[C@@]2(O)C[C@H](OC(=O)N2)[C@@H](C)[C@H]2O[C@@]12C was tested, and the T/C (dose: 0.8 micrograms/kg/injection, schedule: Q01DX009 (ip), vehicle: saline + alcohol) was 170 % of control, the T/C (dose: 0.9 micrograms/kg/injection, schedule: Q01DX009 (ip), vehicle: saline + alcohol) was 110 % of control and the T/C (dose: 1.5 micrograms/kg/injection, schedule: Q01DX009 (ip), vehicle: saline + alcohol) was 173 % of control. For the same compound, the T/C (dose: 3.1 micrograms/kg/injection, schedule: Q01DX009 (ip), vehicle: saline + alcohol) was 168 % of control, the T/C (dose: 6.2 micrograms/kg/injection, schedule: Q01DX009 (ip), vehicle: saline + alcohol) was 170 % of control and the T/C (dose: 12.5 micrograms/kg/injection, schedule: Q01DX009 (ip), vehicle: saline + alcohol) was 163 % of control and 183 % of control. The T/C (dose: 25.0 micrograms/kg/injection, schedule: Q01DX009 (ip), vehicle: saline + alcohol) was 258 % of control and 153 % of control and the T/C (dose: 50.0 micrograms/kg/injection, schedule: Q01DX009 (ip), vehicle: saline + alcohol) was 198 % of control and 223 % of control.
With CC1=C/C(=N\N=C2/C=C(C)CC(C)(C)C2)CC(C)(C)C1 the T/C (dose: 100.0 mg/kg/injection, schedule: Q04DX003 (ip), vehicle: Klucel (hydroxypropylcellulose) (HPC)) was 104 % of control, the T/C [12] was 109 % of control and the T/C [13] was 100 % of control.
In the case of C(=C/c1nnc2ncccn12)/c1ccccc1, the T/C [20] is reported as 97 % of control, the T/C [21] is reported as 94 % of control and the T/C [22] is reported as 110 % of control.
Cc1cc(O)c(C(c2ccccn2)c2c(O)cc(C)[nH]c2=O)c(=O)[nH]1 was tested, and the T/C (dose: 12.5 mg/kg/injection, schedule: Q01DX009 (ip), vehicle: saline with Tween-80) was 95 % of control, the T/C [23] was 90 % of control and the T/C [20] was 100 % of control.
Clc1cccc(NC2=NCCN=C(Nc3cccc(Cl)c3Cl)SS2)c1Cl was tested, and the T/C [20] was 102 % of control, the T/C [21] was 100 % of control and the T/C [22] was 96 % of control.
CC(=N\O)/C(=N\O)C(=O)c1ccccc1 was tested, and the T/C [14] was 91 % of control, the T/C [17] was 95 % of control and the T/C [18] was 95 % of control. For the same compound, the T/C [19] was 90 % of control.
For CC1(O)CCC2C3CCC4=CC(=O)CCC4C3CCC21C (centres undefined), the T/C [11] was 113 % of control, the T/C (dose: 65.0 mg/kg/injection, schedule: Q01DX009 (ip), vehicle: Klucel (hydroxypropylcellulose) (HPC)) was 94 % of control and the T/C (dose: 66.0 mg/kg/injection, schedule: Q01DX009 (ip), vehicle: Klucel (hydroxypropylcellulose) (HPC)) was 95 % of control and 100 % of control. For the same compound, the T/C [15] was 100 % of control, the T/C (dose: 200.0 mg/kg/injection, schedule: Q01DX009 (ip), vehicle: Klucel (hydroxypropylcellulose) (HPC)) was 100 % of control and 118 % of control and the T/C [16] was 115 % of control.
In the case of N#Cc1cnc(=S)n(-c2cc(C(F)(F)F)cc(C(F)(F)F)c2)c1N, the T/C [20] is reported as 101 % of control and the T/C [21] is reported as 115 % of control.
O=[N+]([O-])c1ccc(S(=O)(=O)Cc2ccccc2)c2nonc12 was tested, and the T/C [23] was 112 % of control.
